# According to patent publication US11299435B2, “Urea-based composition and method for the manufacture thereof” (Yara International ASA, priority 2017, dated 2022):
# Assays:
# Type in all cases: physicochemical
# [1] = Stability of nBTPT melt-mixed in urea granules during storage (HPLC nBTPT content)
# Protocol: For pilot scale experiments applying nBTPT in urea, nBTPT, as powder or as liquid formulations, was mixed in urea in the following way: nBTPT was added to urea melt, with and/or without the presence of an alkaline stabilizer and subsequently, this mixture was granulated in a fluidized bed granulator.
# nBTPT in urea granules, with and/or without the presence of an alkaline stabilizer, were produced in the urea pilot plant in Sluiskil (Yara International ASA). This pilot plant has a batch capacity—after sieving—of about 50 kg of on-spec product. It basically consists of a stirred urea preparation vessel with an active volume of about 150 litres and a fluidized bed granulator of the UFT-type, equipped with a spraying nozzle of the spiral-type or HFT-type (EP 1701798 B1, 2005, Yara International ASA).
# The samples were stored under several conditions, dependent on the type of samples:
# (§1) Closed plastic container at room temperature (20° C.)
# Open to air at 20° C. with a relative humidity of 80%
# For some samples, an accelerated stability test was done storing these samples at elevated temperatures:
# 40° C. closed plastic container
# (§2) 50° C. closed plastic container
# (§3) 70° C. closed plastic container
# (§4) HPLC analysis of nBTPT is done as described in the procedure CEN 15688-2007.
# In the first experiment, 500 ppm nBTPT powder was added into urea melt, with and/or without the presence of an alkaline stabilizer, and in a next step this melt composition was converted into urea granules in a fluidized bed granulator. Subsequently, the granules were stored for 98 days at 40° C. in closed plastic containers and the decomposition of nBTPT was followed.
# In a second experiment, the effect of other alkaline stabilizers such as CaO and CaCO3 was shown in comparison with NaOH. 500 ppm nBTPT powder was added into urea melt, containing an alkaline stabilizer, and in a next step, this melt composition was converted into urea granules in a fluidized bed granulator. Subsequently, the granules were stored for 109 days at 50° C. in closed plastic containers and the decomposition of nBTPT was followed.
# On top of that, the granules were also stored for 1564 days (more than 4 years!) at room temperature (20° C.) in closed plastic containers and the decomposition of nBTPT was followed. […] With the addition of 1% CaO or CaCO3 a recovery of nBTPT higher than 40% was found after a long storage period of more than 4 years at room temperature.
# In a third experiment, 500 ppm nBTPT powder was added into a urea melt, with and/or without the presence of 0.1% B as borax, and in a next step this melt composition was converted into urea granules in a fluidized bed granulator. Subsequently, the granules were stored for 57 days at 20° C./80% R.H. in open plastic containers and the decomposition of nBTPT was followed.
# In a fourth experiment, 600 ppm nBTPT powder was added into a urea melt, with and/or without the presence of an alkaline stabilizer, and in a next step this melt composition was converted into urea granules in a fluidized bed granulator. Subsequently, the granules were stored for 15 days at 70° C. in closed plastic containers and the decomposition of nBTPT was followed.
# [2] = Stability of nBTPT applied on moisturized urea granules during storage (HPLC nBTPT content); conditions: vs no stabilizer, closed plastic containers, 70° C., 15 days (FIG. 6)
# Protocol: For lab scale experiments for applying nBTPT on urea, nBTPT, as powder or as liquid formulations, was applied onto urea by adding 1.2 kg of urea to a lab scale drum. In a next step, the nBTPT material, with and/or without the presence of an alkaline stabilizer, was slowly added. A residence time of 10 minutes was applied and the rotating speed of the drum was consequently the same in each experiment. Larger scale experiments with amounts up to 40 kg of fertilizer material were performed in a concrete mixer.
# as §3, §4
# 600 ppm nBTPT powder was mixed with and/or without the presence of an alkaline stabilizer and subsequently added on urea granules, which were moisturized from 0.20% H2O to 0.60% H2O. This moisturization was done to create a higher moisture level of the urea granules to simulate moisture take up during storage in market conditions.
# Subsequently, the urea granules were stored for 15 days at 70° C. in closed plastic containers and the decomposition of nBTPT was followed.
# [3] = Stability of nBTPT in solution with added alkaline compound (HPLC nBTPT content); conditions: closed plastic containers
# Excerpt: Lab scale experiments with nBTPT in solution: • An aqueous solution of nBTPT was made by dissolving 3 g nBTPT powder in 1 L water. In a next step an alkaline compound could be added. • A solution of 17.5% nBTPT in PG was made by dissolving step by step 17.5 g nBTPT powder in 82.5 g PG. In a next step, an alkaline compound could be added. • The commercial liquid nBTPT formulation Agrotain® Ultra was mixed with and/or without the presence of an alkaline stabilizer
# as §1, §2, §4
# In a first experiment, a solution of 17.5% nBTPT in PG was made and in a next step an alkaline compound was added. Subsequently, the solutions were stored in closed plastic containers for 5 days at room temperature (20° C.) and subsequently 7 days at 50° C. and the decomposition of nBTPT was followed.
# In a second experiment, an alkaline compound was added to Agrotain® Ultra. Subsequently, the nBTPT solutions were stored in closed plastic containers for 5 days at room temperature (20° C.) and the decomposition of nBTPT was followed.
# In a third experiment, an aqueous solution of 3.0 g nBTPT in 1 L water was made and in a next step an alkaline compound was added. Subsequently, the aqueous solutions were stored in closed plastic containers for 5 days at room temperature (20° C.) and the decomposition of nBTPT was followed.
smiles,measurement,setting,value
"CCCCNP(N)(N)=S [nBTPT, N-(n-butyl) thiophosphoric triamide]",stability of nBTPT in urea,"[1]; 500 ppm nBTPT powder in urea + 1% CaCO3, compared with urea + 500 ppm NaOH, closed plastic containers, 50° C., 109 days (FIG. 2)",even higher stability
same,stability of nBTPT in urea,"[1]; 500 ppm nBTPT powder in urea + 1% CaCO3, compared with urea + 500 ppm NaOH, closed plastic containers, room temperature (20° C.), 1564 days (FIG. 3)",even higher stability
same,stability of nBTPT in urea,"[1]; 500 ppm nBTPT powder in urea + 1% CaO, compared with urea + 500 ppm NaOH, closed plastic containers, 50° C., 109 days (FIG. 2)",even higher stability
same,stability of nBTPT in urea,"[1]; 500 ppm nBTPT powder in urea + 1% CaO, compared with urea + 500 ppm NaOH, closed plastic containers, room temperature (20° C.), 1564 days (FIG. 3)",even higher stability
same,effect on the stability of nBTPT in urea granules during storage,"[1]; 500 ppm nBTPT powder in urea + NaOH (200, 500, 1000 ppm) vs no NaOH, closed plastic containers, 40° C., 98 days, stability increases with NaOH dosage (FIG. 1)",positive effect
same,effect on the stability of nBTPT in urea granules during storage,"[1]; 600 ppm nBTPT powder in urea + 1% CaCO3 vs no stabilizer, closed plastic containers, 70° C., 15 days (FIG. 5)",big positive effect
same,effect on the stability of nBTPT in urea granules during storage,"[1]; 600 ppm nBTPT powder in urea + 1% CaO vs no stabilizer, closed plastic containers, 70° C., 15 days (FIG. 5)",big positive effect
same,stability of the urease inhibitor in the composition according to the invention,[1]; bagged conditions without the presence of a head space (exclusion of moisture and atmospheric gasses),further increased
same,effect on the stability of nBTPT in urea granules during storage,"[1]; nBTPT powder in urea + 0.1% B as borax vs no borax, open plastic containers, 20° C./80% R.H., 57 days (FIG. 4)",big positive effect
same,effect on the stability of nBTPT on urea granules during storage,[2]; [600 ppm nBTPT powder + 2600 ppm MgO] on urea moisturized from 0.20% to 0.60% H2O,positive effect
same,effect on the stability of nBTPT on urea granules during storage,[2]; [600 ppm nBTPT powder + 6000 ppm CaCO3] on urea moisturized from 0.20% to 0.60% H2O,positive effect
same,effect on the stability of nBTPT in solution,"[3]; 17.5% nBTPT in propylene glycol (PG) + 5% CaO vs none, 5 days at 20° C. then 7 days at 50° C. (FIG. 7)",negative effect
same,effect on the stability of nBTPT in solution,"[3]; 17.5% nBTPT in propylene glycol (PG) + 5% NaOH vs none, 5 days at 20° C. then 7 days at 50° C. (FIG. 7)",negative effect
same,effect on the stability of nBTPT in solution,"[3]; aqueous solution 3 g nBTPT/L water + 1% CaO vs none, 5 days at 20° C. (FIG. 9)",negative effect
same,effect on the stability of nBTPT in solution,"[3]; aqueous solution 3 g nBTPT/L water + 1% Na2CO3 vs none, 5 days at 20° C. (FIG. 9)",negative effect
same,effect on the stability of nBTPT in solution,"[3]; aqueous solution 3 g nBTPT/L water + 1% NaHCO3 vs none, 5 days at 20° C. (FIG. 9)",negative effect
same,effect on the stability of nBTPT in solution,"[3]; aqueous solution 3 g nBTPT/L water + 1% NaOH vs none, 5 days at 20° C. (FIG. 9)",negative effect
